According to patent US9999636B2, “Insulin-mimetics as therapeutic adjuncts for bone regeneration” (Rutgers, The State University of New Jersey, priority 2010, dated 2018):
Marks after values point to notes of the source that are not given here.

Experiments:
[1] = test system: posterolateral intertransverse lumbar fusion L4-L5; test: Radiographic grading of posterolateral lumbar spinal fusion; format: in vivo, Sprague-Dawley rat; conditions: n = 10, eight weeks
[2] = test system: closed mid-diaphyseal femur fracture; test: Torsional mechanical testing of fractured femora, local ZnCl2 with or without CaSO4 carrier; format: in vivo, BB Wistar rat; design: Percent Effective Shear Stress: scale not given: direction of the effect not stated beside the values; conditions: for mode of torsional failure: femurs harvested 4 weeks post-surgery (FIG. 2)
Source text: In addition to the biomechanical parameters determined through torsional testing, the mode of failure can also provide substantial information. The mode of torsional failure as determined by gross inspection provided an indication as to the extent of healing. A spiral failure in the mid-diaphyseal region indicated a complete union while a transverse failure through the fracture site indicated a nonunion. A combination spiral/transverse failure indicated a partial union (FIG. 2).
To prepare the ZnCl2/CaSO4 mixture, CaSO4 (2 g) were placed in glass vials. The vials were placed in an autoclave and sterilized […] in a dry cycle. CaSO4 powder (0.8 g) was mixed with 400 μl of saline or 400 μl of ZnCl2 solution (1.0 mg/kg) for one minute at room temperature. The mixture was packed into the barrel of a 1 cc sterile syringe and pushed down into the open orifice of the syringe barrel by insertion of the syringe plunger. After attaching an 18-gauge sterile needle to the syringe barrel, 0.1 ml volume of the mixture was directly injected into the rat femoral canal (non-diabetic BB Wistar rat) prior to Kirschner wire insertion and fracture.

[3] = 10.0 mg/kg local, no carrier
Source text: Diabetic Resistance (DR) BB Wistar rats used in the study were obtained from a breeding colony at UMDNJ-New Jersey Medical School (NJMS). The rats were housed under controlled environmental conditions and fed ad libitum. All research protocols were approved by the Institutional Animal Care and Use Committee at University of Medicine and Dentistry of New Jersey-New Jersey Medical School.
Doses of ZnCl2 were not based on each animal's body weight, but on a lower theoretically tolerable dose for a 290-gram BB Wistar rat, which would not elicit heavy metal poisoning or behavioral changes. This weight is over 50 grams lower than the average weight of non-diabetic BB Wistar rats at an age of approximately 90 days (the age of investigation in this study). A 0.1 ml volume of the ZnCl2 solution was administered locally via a single injection into the marrow space for each dose examined.

[4] = test system: closed mid-diaphyseal femur fracture; conditions: four weeks post-fracture
Source text: X-rays are taken at two-week intervals to the day of euthanasia. After euthanasia x-rays are taken as well. To take x-rays, animals will be given a half dose of anesthesia. All groups will be monitored closely for four days after surgery for infection, and the ability to ambulate freely.

[5] = high dose 1.0 mg/kg Calcium Sulfate pellet, 1 mg/kg
[6] = low dose 0.5 mg/kg Calcium Sulfate pellet, listed as zinc, 0.5 mg/kg

[Zn] [Zn]
Radiographs: number graded A = solid fusion mass bilaterally [1, 5]: 7
Radiographs: number graded D = Graft resorption [1, 5]: 0
Radiographs: number graded A = solid fusion mass bilaterally [1, 6]: 7/10
Radiographs: number graded D = Graft resorption [1, 6]: 0/10

[Cl-].[Cl-].[Zn+2] [ZnCl2, Zinc chloride]
mode of torsional failure ([2]; 1.0 mg/kg): spiral fracture indicative of healing
mode of torsional failure ([2]; 3.0 mg/kg): spiral fracture indicative of healing
Percent Effective Shear Stress ([2]; 10.0 mg/kg, no carrier, 4 weeks post-fracture, normalized to contralateral (intact) femur): 27 ± 11%
time in which fracture healing resolved ([2]; applied directly to fracture site, instead of average eight to ten weeks in standard rat femur fracture model): four to five weeks
Blood Glucose 12 Hours Post-Surgery [3]: 87.7 ± 8.5 ^a mg/dl

manganese chloride [MnCl2]
mineralized tissue on radiographs ([4]; 0.25 mg/kg, vs saline controls): increased mineralized tissue
union on radiographs ([4]; saline control had no evidence of union): demonstrated union at the subperiosteal bony area and at the callus
